Measurements taken from US12060588B2, “Methods of editing DNA methylation” (Whitehead Institute for Biomedical Research, priority 2016, dated 2024).

Tested on: Snrpn promoter region (Dazl-Snrpn-GFP reporter)
Test: Activation of the Dazl-Snrpn-GFP methylation reporter in mESCs (flow cytometry)
Type: cell-based, mouse
Conditions: lentiviral infection, 3 days, FACS
Method: FIGS. 1A-IF depict activation of the Daz1-Snrpn-GFP reporter by dCas9-Tet1. […] FIG. 1B is a schematic representation of targeting the Snrpn promoter region by dCas9-Tet1 with specific gRNAs to erase methylation and activate GFP expression. […] Percentage of GFP positive cells were calculated by flow cytometric analysis of these cells 3-day post infection, and shown as the mean percentages of GFP positive cells±SD of two biological replicates. Note that the percentages of GFP-positive cells are expressed as the fraction of infected Cherry-positive cells. […] Scale bar: 250 um. Right: provides percentages of GFP positive colonies were quantified, and shown as the mean percentages of GFP positive cells±SD of two biological replicates. […] FIG. 1F provides methylation levels of individual CpGs in the Snrpn promoter region and the adjacent Dazl locus. Shown is the mean percentage±SD of two biological replicates.
To assess whether the dCas9-Tet1 and -Dnmt3a fusion constructs would induce demethylation or de novo methylation, respectively, of specific sequences, we utilized a methylation reporter system previously developed in our laboratory (Stelzer et al., 2015). This reporter system consists of a synthetic methylation-sensing promoter (conserved sequence elements from the promoter of an imprinted gene, Snrpn) that controls the expression of a green fluorescence protein (GFP). […]

“dCas9-Tet1: catalytically inactive Cas9 (dCas9) fused through NLS to the Tet1 catalytic domain, SEQ ID NO: 159; lentivirally expressed with gRNAs” was tested, and the “GFP positive cells among the Cherry positive population” value (with 4 target gRNAs (Snrpn promoter)) was “about 26%” and the “GFP positive cells among the Cherry positive population” value (with a scrambled gRNA) was 1%.
